Measured values as given in patent US20030077653A1, “Method for the identification of active site protease inactivators” (The University of Georgia Research Foundation, Inc., priority 2000, published 2003).
Residues, ends and D or L forms follow the SMILES beside them. *: point of attachment. AFC = O=c1cc(C(F)(F)F)c2ccc(N*)cc2o1; Cbz = O=C(OCc1ccccc1)*; Boc = CC(C)(C)OC(=O)*

Key:
Assay type in all cases: biochemical
[1] = system: purified Taenia solium cysteine protease; experiment: Protease inactivator inhibition assay (EC100, Ki; Step VII)
Text: Once the protease inactivators were synthesized in the organic laboratory, they were to be tested for the lowest efficacious concentrations at which they induced 100% inhibition of the target protease (EC100). The top percent cocktail that was employed in the final vehicle selection step of Step III was employed as the source of competition for the inhibitors. In this case, this was the […] which was comprised of Z-FR-AFC, Z-FAR-AFC, Z-AP-AFC, Z-AAK-AFC, and Z-VLR-AFC. The final result would be a ranking of transition state candidate protease inactivators with a high ranking directly correlating to a low ECIoo value. The following steps describe the assay:
Step A: Initial Screening. To set up the test control, each protease inactivator was first incubated with the 5% cocktail (which provided the final differentiation of vehicles in Step III). To begin with, the protease inactivator was incubated at a concentration of 3×10^−9M in 500 μl of assay buffer (0.2 M Citrate, pH 4.9 supplemented with 10mM L-cysteine). This concentration was determined, after a series of inhibitor dilutions identified, to be the best inhibitor concentration at which a differentiation in inhibitor potential could be noted. Next, a concentration equal to 4×10^−5M for each of the individual cocktail components, was added to the mix. The components were allowed to equilibrate for a period of 30 minutes. […]
Percent inhibition was calculated as: [formula] […]
Step C: Determination ofInhibitor Ki and mode of inhibition, and re-ranking of EC100 list with inhibitor Ki. Ki of each of the top ranked protease inactivators, based upon low EC100 values, was assessed next for the top 5 EC100 inhibitors.
In order to determine Ki, all of the high Vmax cocktail substrates were employed for Ki determination (since Ki of the inhibitor for the enzyme is the same regardless of the substrate). To insure the highest accuracy, Ki was to be determined upon a minimum of at least three of the high Kcat substrates. […]

[2] = system: purified Taenia solium cysteine protease; experiment: Screen of AFC-linked synthetic substrates for cleavage (Step II); details: pH 4.9, 18 h, 37° C
Procedure: In this step, the most efficacious substrate for detection of the cysteine protease (high Kcat substrate) was determined in vitro along with those substrates which were not well cleaved (low kcat substrates). From this point forth, the following conditions refer to all assays: “assay buffer” refers to 0.4 M Citrate, pH 4.9 (the pH optima of the protease). Incubation time was 18 hours at 37° C. These conditions were determined by our preliminary data to be best for kinetic evaluation of the protease. […] The experiments were conducted in […] Borosilicate mini-culture tubes (Fisher Scientific), and a fluorometer (Turner) was employed for detection of AFC cleavage.
Approximately 1 ug (or a proteolytically detectable amount) of the purified target cysteine protease was incubated individually, with 1 μg of each of the available substrates in 500 μL of assay buffer. During this setup, the substrate was pre-incubated in the assay buffer for a short period of time (20 minutes) in order to reach an equilibrated status before the addition of the protease. Cleavage assessments were based upon the property of the protease to cleave synthetic peptide substrates linked at the C-terminus to 7-Amino-4-Trifluoromethyl Coumarin (AFC) as previously described. AFC linked tripeptides, dipeptides, and monopeptides, (with a variety of permutations at P3-P1) were available from Enzyme Systems Products (Livermore, CA), and were used as the source of the subset. Following incubation of enzyme preparations overnight (18 h, 37 ° C.) with peptide in assay buffer (Citrate, pH 4.9, supplemented with 0.01 M cysteine), free AFC concentrations were measured fluorometrically (excitation […]). The proteolytic cleavage released the AFC group, which was measurable as a free molecule by a standard fluorometer and converted into molar quantities, based upon a previously established standard curve. The simplicity of AFC detection by the fluorometer was a key factor which quickened and simplified the procedures.
In the assay, 1 ug of the purified Taenia cysteine protease was added to a saturating amount of Z-Phe-Arg-AFC (4×10^−5 M) in assay buffer. The experiment was conducted in triplicate and repeated at least 5 times until we were certain that variability in AFC cleavage was not statistically significant.
Vmax was calculated for the cleavage of substrates by the purified target protease and Vmax was calculated for substrates cleaved by the crude mix protease using conventional kinetic modeling calculations already described in the art.

[3] = system: purified Taenia solium cysteine protease; experiment: Competitor assay: vehicle inhibition of cleavage of high Vmax AFC substrate cocktails (Step III); details: purified protease; P = inhibition with first (1.4%) cocktail, M = inhibition with last (7.4%) cocktail
Procedure: (We employed “Vmax” here although Kcat could also be used). Due to the lower number of substrates, a percentage was not chosen for the “BOTTOM %” substrates. Alternately, all substrates which were not cleaved as determined by a value of 10 μM/hr or less, were chosen to be tested in this step for competitive ability. From this point forth, the term “vehicle” will represent low Vmax substrates that were capable of inhibiting cleavage of the percent cocktails. In this instance, we tested for “vehicles” which inhibited cleavage of the TOP 1.4% cocktail (they were delivered into the active site). Based upon our results from Step II, the top 1.4% cocktail was composed of Z-Phe-Arg-AFC, the highest cleaved substrate.
The experiment began with a competitor test between the noncleaved low Vmax substrates and the highest Vmax substrate, Z-Phe-Arg-AFC. Concentrations were varied between the low Vmax substrate and Z-Phe-Arg-AFC, as described above under “refinement of assay” until a relative inhibition profile was obtained.
The mixture was allowed to equilibrate for a period of 30 minutes. Finally, active purified enzyme was added to the tubes at a concentration which was always 50 times less than the concentration of the high and low Vmax substrates, in order to insure saturation conditions. This concentration varied from purification to purification and the amount added depended upon the yield and specific activity of the purified protease.
Positive controls were set up similarly as described for test controls, except that solvent was added in substitution for the low Vmax substrate (in a volume equal to the low Vmax volume addition). All of the substrates could be dissolved in dimethylsulfoxide (DMSO), and therefore, this was the solvent of choice. Negative controls were set up by adding the low Vmax and the high Vmax substrate in a tube without the protease. All potential non-proteolytic induced liberation of AFC was therefore controlled for in this tube (a feature which also insured stability of the AFC substrates, since these substrates will freely liberate AFC when unstable). A tube set will be established for this negative control.
All controls were set up in triplicate, and experiments repeated a minimum of five times. The assays were incubated at 37° C., for 18 hours overnight.
Percent inhibition was calculated as: [formula]
A 2.9% cocktail of the high Vmax substrates was made. This was composed of Z-FR-AFC and the second most cleaved substrate, Z-FAR-AFC. The vehicles promoted from the initial screenings above were again tested for competitive inhibition ability with the new cocktails. Their concentrations were set identically to those which were “fixed” in the previous protocols. […]

Taenia solium crude mix = experiment: Competitor assay with crude mix as source of the protease (Step III)
Procedure: In order to prepare the Taenia solium “crude mix” , dry frozen Taenia solium cysts were obtained from 6-12 month old cysticercotic pigs from villages in an endemic area of porcine cysticercosis in Mexico. Metacestodes were carefully dissected from the parasitized tissues, washed three times with PBS, and lyophilized. Parasite extracts were prepared by suspending 0.1 grams of dry frozen cysts in 10 ml of extraction buffer (0.4 M citrate, pH 4.9). The cysts were vortexed for three five-minute intervals with intermittent incubations (5 min) at 4 ° C. Particulate material was removed by centrifugation (20,000 x g, 120 min) and the resulting soluble fraction filtered ([…]). In assay buffers, the detectable amount of the crude mix, as described above, was employed and incubated with the target substrates.
One of the most intriguing findings in this experiment was that a highly similar inhibition pattern for the competitor assay was noted when the crude mix was employed as the source of the target protease. Although there were some variations in the effects of inhibitor dilution, the most highly ranked vehicles remained inhibitory consistently in comparison to the profile with the target protease. The relative profile and composition of the top tiers of vehicles was identical. Z-LLL-AFC, Z-LLY-AFC, Mu-LY-AFC, Boc-VPR-AFC, Z-SY-AFC, Z-RR-AFC, Z-FLF-AFC, Z-LGR-AFC consistently presented as the top eight vehicles (FIG. 5b), respectively, based upon their V values (Table 2). […] It was notable that the three vehicles had very similar V values. […] As was mentioned, this vehicle along with Z-LLL-AFC and Z-LLY-AFC, were consistently the most inhibitory vehicles. The V values of the most inhibitory vehicle series are shown below in Table 2. Again, a clear break between the first and second tier vehicles could be noted with the V value.

Structure (SMILES) | cleavage as substrate (Vmax) [2] | V Value (vehicle inhibition quotient, V=P*M) [3] | V Value (vehicle inhibition quotient, V=P*M) (Taenia solium crude mix) | also measured
CC(C)C[C@@H](/C=C/S(C)(=O)=O)NC(=O)[C@H](CC(C)C)NC(=O)[C@H](CC(C)C)NC(=O)OCc1ccccc1 [Z-LLL-VS, Z-Leu-Leu-Leu-vinylsulfone] |  |  |  | ranking of protease inactivators by inhibition / EC100 [1]: top inhibitors
NC(N)=NCCCC(NC(=O)C(Cc1ccccc1)NC(=O)OCc1ccccc1)C(=O)Nc1ccc2c(C(F)(F)F)cc(=O)oc2c1 (stereo not drawn) [Z-Phe-Arg-AFC] (Cbz-Phe-Arg-{AFC}; configuration not given here) | highest Vmax |  |  | 
O=C(N[C@@H](CO)C(=O)N[C@@H](Cc1ccc(O)cc1)C(=O)Nc1ccc2c(C(F)(F)F)cc(=O)oc2c1)OCc1ccccc1 [Z-SY-AFC] (Cbz-Ser-Tyr-{AFC}) |  | 0.090 | 0.09 | 
CC(C)C[C@H](NC(=O)OC(C)(C)C)C(=O)NCC(=O)N[C@@H](CCCNC(=N)N)C(=O)Nc1ccc2c(C(F)(F)F)cc(=O)oc2c1 [B-LGR-AFC] (Boc-Leu-Gly-Arg-{AFC}) |  | 0.07 | 0.02 | 
NC(N)=NCCC[C@H](NC(=O)OCc1ccccc1)C(=O)N[C@@H](CCCN=C(N)N)C(=O)Nc1ccc2c(C(F)(F)F)cc(=O)oc2c1 [Z-RR-AFC] (Cbz-Arg-Arg-{AFC}) |  |  | 0.09 | 
CC(C)C[C@H](NC(=O)[C@H](Cc1ccccc1)NC(=O)OCc1ccccc1)C(=O)N[C@@H](Cc1ccccc1)C(=O)Nc1ccc2c(C(F)(F)F)cc(=O)oc2c1 [Z-FLF-AFC] (Cbz-Phe-Leu-Phe-{AFC}) |  | 0.100 | 0.10 | 
CC(C)[C@H](NC(=O)OC(C)(C)C)C(=O)N1CCC[C@H]1C(=O)N[C@@H](CCCNC(=N)N)C(=O)Nc1ccc2c(C(F)(F)F)cc(=O)oc2c1 [B-VPR-AFC, Boc-Val-Pro-Arg-AFC] (Boc-Val-Pro-Arg-{AFC}) | noncleavable |  |  | 
CC(C)C[C@H](NC(=O)OCc1ccccc1)C(=O)NCC(=O)N[C@@H](CCCNC(=N)N)C(=O)Nc1ccc2c(C(F)(F)F)cc(=O)oc2c1 [Z-LGR-AFC, Z-Leu-Gly-Arg-AFC] (Cbz-Leu-Gly-Arg-{AFC}) | noncleavable |  |  | 
